From patent US9150560B2, “Inhibitors of histone deacetylase” (Janssen Pharmaceutica, N.V., priority 2002, dated 2015)
Where two headings read alike, the source gives them in different places.

Key:
[1] = Kinetic solubility in aqueous media (nephelometry); assay type: physicochemical; settings: phosphate citrate buffer pH 7.4, turbidity of three dilution steps
Description: Kinetic solubility in aqueous media measures the ability of a compound to stay in aqueous solution upon dilution (see example C.3).
DMSO-stock solutions are diluted with a single aqueous buffer solvent in 3 consecutive steps. For every dilution turbidity is measured with a nephelometer.
In the first dilution step, 10 μl of a concentrated stock-solution of the active compound, solubilized in DMSO (5 mM), was added to 100 μl phosphate citrate buffer pH 7.4 and mixed. In the second dilution step, an aliquot (20 μl) of the first dilution step was further dispensed in 100 μl phosphate citrate buffer pH 7.4 and mixed. Finally, in the third dilution step, a sample (20 μl) of the second dilution step was further diluted in 100 μl phosphate citrate buffer pH 7.4 and mixed. All dilutions were performed in 96-well plates. Immediately after the last dilution step the turbidity of the three consecutive dilution steps were measured with a nephelometer. Dilution was done in triplicate for each compound to exclude occasional errors. Based on the turbidity measurements a ranking is performed into 3 classes. Compounds with high solubility obtained a score of 3 and for this compounds the first dilution is clear. Compounds with medium solubility obtained a score of 2. For these compounds the first dilution is unclear and the second dilution is clear. […] The solubility of 9 compounds was measured.

[2] = test system: A2780 ovarian carcinoma cells; experiment: Determination of antiproliferative activity on A2780 cells (MTT); assay type: cell-based, human; settings: four days of incubation; for IC50: Homo sapiens, 96 h, read-out: Cellular activity pIC50 (converted)
Description: Cellular activity of the compounds of formula (I) was determined on A2780 tumour cells using a colorimetric assay for cell toxicity or survival (Mosmann Tim, Journal of Immunological Methods 65: 55-63, 1983)(see example C.2).
All compounds tested were dissolved in DMSO and further dilutions were made in culture medium. Final DMSO concentrations never exceeded 0.1% (v/v) in cell proliferation assays. Controls contained A2780 cells and DMSO without compound and blanks contained DMSO but no cells. MTT was dissolved at 5 mg/ml in PBS. A glycine buffer comprised of 0.1 M glycine and 0.1 M NaCl buffered to pH 10.5 with NaOH (1 N) was prepared (all reagents were from Merck).
The human A2780 ovarian carcinoma cells (a kind gift from Dr. T. C. Hamilton [Fox Chase Cancer Centre, Pennsylvania, USA]) were cultured in RPMI 1640 medium supplemented with 2 mM L-glutamine, 50 μg/ml gentamicin and 10% fetal calf serum. Cells were routinely kept as monolayer cultures at 37° C. in a humidified 5% CO2 atmosphere. Cells were passaged once a week using a trypsin/EDTA solution at a split ratio of 1:40. All media and supplements were obtained from Life Technologies. Cells were free of mycoplasma contamination as determined using the Gen-Probe Mycoplasma Tissue Culture kit (supplier: BioMérieux).
Cells were seeded in NUNC™ 96-well culture plates (Supplier: Life Technologies) and allowed to adhere to the plastic overnight. Densities used for plating were 1500 cells per well in a total volume of 200 μl medium. After cell adhesion to the plates, medium was changed and drugs and/or solvents were added to a final volume of 200 μl. Following four days of incubation, medium was replaced by 200 μl fresh medium and cell density and viability was assessed using an MTT-based assay. To each well, 25 μl MTT solution was added and the cells were further incubated for 2 hours at 37° C. The medium was then carefully aspirated and the blue MTT-formazan product was solubilized by addition of 25 μl glycine buffer followed by 100 μl of DMSO. […] Within an experiment, the results for each experimental condition are the mean of 3 replicate wells. For initial screening purposes, compounds were tested at a single fixed concentration of 10^−6M. For active compounds, the experiments were repeated to establish full concentration-response curves. For each experiment, controls (containing no drug) and a blank incubation (containing no cells or drugs) were run in parallel. The blank value was subtracted from all control and sample values. For each sample, the mean value for cell growth (in absorbance units) was expressed as a percentage of the mean value for cell growth of the control. […] Herein the effects of test compounds are expressed as pIC50 (the negative log value of the IC50-value).

[3] = biological target: histone deacetylase (HDAC), HeLa nuclear extracts; experiment: In vitro assay for inhibition of histone deacetylase; assay type: biochemical; set-up: key: pIC50 = negative log of IC50; settings: [3H]acetylated histone H4 peptide substrate, 30 min
Description: The in vitro assay for inhibition of histone deacetylase (see example C.1) measures the inhibition of HDAC enzymatic activity obtained with the compounds of formula (I).
HeLa nuclear extracts (supplier: Biomol) were incubated at 60 μg/ml with 2×10^−8 M of radiolabeled peptide substrate. As a substrate for measuring HDAC activity a synthetic peptide, i.e. the amino acids 14-21 of histone H4, was used. The substrate is biotinylated at the NH2-terminal part with a 6-aminohexanoic acid spacer, and is protected at the COOH-terminal part by an amide group and specifically [^3H]acetylated at lysine 16. The substrate, biotin-(6-aminohexanoic)Gly-Ala-([^3H]-acetyl-Lys-Arg-His-Arg-Lys-Val-NH2), was added in a buffer containing 25 mM Hepes, 1 M sucrose, 0.1 mg/ml BSA and 0.01% Triton X-100 at pH 7.4. After 30 min the deacetylation reaction was terminated by the addition of HCl and acetic acid. (final concentration 0.035 mM and 3.8 mM respectively). After stopping the reaction, the free ^3H-acetate was extracted with ethylacetate. After mixing and centrifugation, the radioactivity in an aliquot of the upper (organic) phase was counted in a β-counter.
For each experiment, controls (containing HeLa nuclear extract and DMSO without compound), a blank incubation (containing DMSO but no HeLa nuclear extract or compound) and samples (containing compound dissolved in DMSO and HeLa nuclear extract) were run in parallel. In first instance, compounds were tested at a concentration of 10^−5M. […] In each test the blank value was substracted from both the control and the sample values. The control sample represented 100% of substrate deactylation. For each sample the radioactivity was expressed as a percentage of the mean value of the controls. […] Herein the effects of test compounds are expressed as pIC50 (the negative log value of the IC50-value).

[4] = not given; remark: listed apart in the source

Compound	melting point [°C]	IC50 [2] [nM]	Enzyme activity pIC50 [3]	Cellular activity pIC50 [2]	% metabolism ([4]; human, 15 min, 5 μM) [%]	Solubility Score [1]	% metabolism ([4]; 15 min incubation, compound 5 μM, microsomes 1 mg/ml, NADPH-generating system) [%]
COc1cc(N)c(Cl)cc1C(=O)NC1CCN(CCCOc2ccc(F)cc2)CC1OC (stereo not shown) [Cisapride]	–	–	–	–	45	–	–
CCCCCCCCS(=O)(=O)N1CCN(c2ccc(C(=O)NO)cc2)CC1 [compound 18]	–	–	6.173	6.166	–	1 (Compounds with low solubility obtained a score of 1 and for these compounds both the first and the second dilution are unclear)	–
O=C(NO)c1cnc(N2CCN(C(=O)C(c3ccccc3)c3ccccc3)CC2)nc1 [Co. No. 5]	–	659	7.096	–	–	–	–
O=C(CS)Nc1ccc(N2CCC3(CC2)C(=O)NCN3c2ccccc2)cc1 [Co. No. 1]	–	> 10000	<5	–	–	1 (Compounds with low solubility obtained a score of 1 and for these compounds both the first and the second dilution are unclear)	–
CCCO [propanol]	–	–	–	–	–	–	25

Continued, in another order:

melting point [°C]	IC50 [2] [nM]	Enzyme activity pIC50 [3]	Cellular activity pIC50 [2]	% metabolism ([4]; human, 15 min, 5 μM) [%]	Compound	Solubility Score [1]	% metabolism ([4]; 15 min incubation, compound 5 μM, microsomes 1 mg/ml, NADPH-generating system) [%]
182	2960	7.27	–	–	CN(C)S(=O)(=O)NCC1CCN(c2ncc(C(=O)NO)cn2)CC1 [Co. No. 4]	3 (Compounds with high solubility obtained a score of 3 and for this compounds the first dilution is clear)	–
–	–	7.073	6.084	–	O=C(NO)c1cnc(N2CCN(C(=O)c3cccc4ccccc34)CC2)nc1 [compound 24]	–	–
130	1490	7.104	–	–	O=C(NO)c1cnc(N2CCN(C(=O)c3ccc4ccccc4c3)CC2)nc1 [Co. No. 6]	3 (Compounds with high solubility obtained a score of 3 and for this compounds the first dilution is clear)	–
> 260	2920	6.615	–	–	CN(C)S(=O)(=O)N1CCN(c2ncc(C(=O)NO)cn2)CC1 [Co. No. 2]	3 (Compounds with high solubility obtained a score of 3 and for this compounds the first dilution is clear)	–
212	> 10000	6.881	–	–	NS(=O)(=O)N1CCN(c2ncc(C(=O)NO)cn2)CC1 [Co. No. 3]	3 (Compounds with high solubility obtained a score of 3 and for this compounds the first dilution is clear)	–
